Data taken from patent US20110190125A1, “2-(BENZYLSULFONYL)OXAZOLE DERIVATIVES, CHIRAL 2-(BENZYLSULFINYL)OXAZOLE DERIVATIVES” (BAYER CROPSCIENCE AG, priority 2008, published 2011).

Legend:
Assay type in all cases: in vivo
[1] = system: Lolium multiflorum; experiment: Pre-emergence herbicidal effect (greenhouse pot test); details: pre-emergence method, application rate of 0.32 kg and less of active substance per hectare, scored visually after about 3 weeks
Excerpt: (§1) Seeds of monocotyledonous or dicotyledonous weed plants or crop plants are placed in sandy loam in wood-fiber pots and covered with soil. The compounds according to the invention, formulated in the form of wettable powders (WP), are then applied as aqueous suspension at a water application rate of 600 I/ha (converted) with the addition of 0.2% of wetting agent to the surface of the covering soil.
(§2) After the treatment, the pots are placed in a greenhouse and kept under good growth conditions for the test plants. After about 3 weeks, the effect of the preparations is scored visually in comparison with untreated controls (herbicidal effect in percent (%): 100% activity=the plants have died, 0% activity=like control plants).

[2] = system: Veronica persica; experiment: as above; details: pre-emergence method, application rate of 0.32 kg and less of active substance per hectare, scored visually after about 3 weeks
Excerpt: as §1, §2

[3] = system: Alopecurus myosuroides; experiment: as above; details: pre-emergence method, application rate of 0.32 kg and less of active substance per hectare, scored visually after about 3 weeks
Excerpt: as §1, §2

[4] = system: Echinochloa crus galli; experiment: as above; details: pre-emergence method, application rate of 0.32 kg and less of active substance per hectare, scored visually after about 3 weeks
Excerpt: as §1, §2

[5] = system: Lolium multiflorum; experiment: Post-emergence herbicidal effect (greenhouse pot test); details: post-emergence method, application rate of 0.32 kg and less of active substance per hectare, rated visually after about 3 weeks
Method: (§3) Seeds of monocotyledonous and dicotyledonous weed and crop plants are placed in sandy loam in wood-fiber pots, covered with soil and cultivated in a greenhouse under good growth conditions. 2 to 3 weeks after sowing, the test plants are treated at the one-leaf stage. The compounds according to the invention, formulated in the form of wettable powders (WP), are then sprayed as aqueous suspension at a water application rate of 600 I/ha (converted) with the addition of 0.2% of wetting agent onto the green parts of the plants. After the test plants have been kept in the greenhouse under optimum growth conditions for about 3 weeks, the activity of the preparations is rated visually in comparison to untreated controls (herbicidal activity in percent (%): 100% activity=the plants have died, 0% activity=like control plants).

[6] = system: Echinochloa crus galli; experiment: as above; details: post-emergence method, application rate of 0.32 kg and less of active substance per hectare, rated visually after about 3 weeks
Method: as §3

O=S(=O)(Cc1c(Cl)ccc(Cl)c1Cl)c1ncco1 [compound No. 66, 2-[(2,3,6-Trichlorobenzyl)sulfonyl]-1,3-oxazole]
very good herbicidal activity: herbicidal activity against Lolium multiflorum [1] | herbicidal activity against Veronica persica [2] | herbicidal activity against Alopecurus myosuroides [3] | herbicidal activity against Echinochloa crus galli [4]

Cc1ccc(F)c(C[S+]([O-])c2ncco2)c1F (stereo not drawn) [compound No. 14, 2-[(2,6-Difluoro-3-methylbenzyl)sulfinyl]-1,3-oxazole]
very good herbicidal activity: herbicidal activity against Lolium multiflorum [1] | herbicidal activity against Veronica persica [2] | herbicidal activity against Alopecurus myosuroides [3] | herbicidal activity against Echinochloa crus galli [4]

Cc1ccc(C)c(C[S+]([O-])c2ncco2)c1 (stereo not drawn) [compound No. 131, 2-[(2,5-Dimethylbenzyl)sulfinyl]-1,3-oxazole]
very good herbicidal activity: herbicidal activity against Lolium multiflorum [5] | herbicidal activity against Echinochloa crus galli [6] | herbicidal activity against Lolium multiflorum [1] | herbicidal activity against Veronica persica [2] | herbicidal activity against Alopecurus myosuroides [3] | herbicidal activity against Echinochloa crus galli [4]

[O-][S+](Cc1c(F)ccc(F)c1Cl)c1ncco1 (stereo not drawn) [compound No. 203, 2-[(2-Chloro-3,6-difluorobenzyl)sulfinyl]-1,3-oxazole]
very good herbicidal activity: herbicidal activity against Lolium multiflorum [5] | herbicidal activity against Echinochloa crus galli [6] | herbicidal activity against Lolium multiflorum [1] | herbicidal activity against Veronica persica [2] | herbicidal activity against Alopecurus myosuroides [3] | herbicidal activity against Echinochloa crus galli [4]

[O-][S@@+](Cc1c(Cl)cccc1Cl)c1ncco1 [compound 2517]
very good herbicidal activity: herbicidal activity against Lolium multiflorum [5] | herbicidal activity against Echinochloa crus galli [6] | herbicidal activity against Lolium multiflorum [1] | herbicidal activity against Veronica persica [2] | herbicidal activity against Alopecurus myosuroides [3] | herbicidal activity against Echinochloa crus galli [4]

[O-][S+](Cc1c(Cl)cccc1Cl)c1ncco1 (racemic) [compound 44, 2-[(2,6-dichlorobenzyl)sulfinyl]-1,3-oxazole]
very good herbicidal activity: herbicidal activity against Lolium multiflorum [5] | herbicidal activity against Echinochloa crus galli [6] | herbicidal activity against Lolium multiflorum [1] | herbicidal activity against Veronica persica [2] | herbicidal activity against Alopecurus myosuroides [3] | herbicidal activity against Echinochloa crus galli [4]

[O-][S+](Cc1c(Cl)ccc(Cl)c1Cl)c1ncco1 (stereo not drawn) [compound No. 65, 2-[(2,3,6-Trichlorobenzyl)sulfinyl]-1,3-oxazole]
very good herbicidal activity: herbicidal activity against Lolium multiflorum [5] | herbicidal activity against Echinochloa crus galli [6] | herbicidal activity against Lolium multiflorum [1] | herbicidal activity against Veronica persica [2] | herbicidal activity against Alopecurus myosuroides [3] | herbicidal activity against Echinochloa crus galli [4]

[O-][S+](Cc1c(F)cccc1F)c1ncco1 (stereo not drawn) [compound No. 11, 2-[(2,6-Difluorobenzyl)sulfinyl]-1,3-oxazole]
very good herbicidal activity: herbicidal activity against Lolium multiflorum [1] | herbicidal activity against Veronica persica [2] | herbicidal activity against Alopecurus myosuroides [3] | herbicidal activity against Echinochloa crus galli [4]
